This is an account of results in paper PMC5626031, “Differential inhibition of adenylylated and deadenylylated forms of M. tuberculosis glutamine synthetase as a drug discovery platform” (PLoS ONE, 2017).

“And” between values parts separate entries of the source, which are not always exact repeats. Identical values can stand only once. Like-named read-outs stand apart in the source and are kept apart here.

For one assay, the target named is T1, adenylylated MtbGS (Mycobacterium tuberculosis, UniProt P9WN39).
T1 construct: made in house; host or cells: E. coli YMC11E(DE3) with pTBSK and pTBglnE
T1 sequence (P9WN39 2-478 limits assumed): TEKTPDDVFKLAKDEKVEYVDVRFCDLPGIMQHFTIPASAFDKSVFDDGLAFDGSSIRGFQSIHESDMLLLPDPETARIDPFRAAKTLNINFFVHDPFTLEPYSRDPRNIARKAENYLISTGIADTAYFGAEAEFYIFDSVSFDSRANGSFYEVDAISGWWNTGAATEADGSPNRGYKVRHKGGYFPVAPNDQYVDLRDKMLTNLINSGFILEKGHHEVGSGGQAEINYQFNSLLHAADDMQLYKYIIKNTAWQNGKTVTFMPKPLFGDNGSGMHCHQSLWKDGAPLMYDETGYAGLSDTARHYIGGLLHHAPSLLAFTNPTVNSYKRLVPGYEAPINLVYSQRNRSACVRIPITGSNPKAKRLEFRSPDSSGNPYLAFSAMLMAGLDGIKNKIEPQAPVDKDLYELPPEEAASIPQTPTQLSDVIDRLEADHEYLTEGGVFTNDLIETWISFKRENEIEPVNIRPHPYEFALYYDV
In words: biochemical. The format is biochemical, M. tuberculosis. As to conditions: for inhibition at 10 µM: 10μM final concentration.

The target of another assay is T2, deadenylylated MtbGS (Mycobacterium tuberculosis, UniProt P9WN39).
T2 construct: made in house; host or cells: E. coli YMC11E with pTBSK
T2 sequence (P9WN39 2-478 limits assumed): as above
In words: biochemical. More on the design: species or system M. tuberculosis. As to conditions: for inhibition at 10 µM: 10μM final concentration, pre-incubation protocol.

The test system of assay [1] is M.tb H37Rv reference strain. Nature of the assay: BACTEC 460TB assay of mycobacterial growth. As to conditions: 100 μM, day 6 of incubation, relative to control cultures. It counts as cell-based, Mycobacterium tuberculosis.
Assay [2] deals with M.tb (Beijing220) in mouse bone-marrow derived macrophages. In words: Intracellular M.tb in mouse bone-marrow derived macrophage assay. The format is cell-based, Mycobacterium tuberculosis. As to conditions: 100 μM.
For another assay, the system named is M. tuberculosis. The settings on record: both in vitro and in vivo; cited from earlier work.
For assay [3], the system named is M.tb H37Rv reference strain (ATCC 25618). Set-up: method as in PMID 9145860. As to conditions: approximately 10x higher than the minimal inhibitory concentrations; cited from earlier work.
For assay [4], the system named is M.tb (Beijing220) clinical isolate. As to conditions: cited from earlier work.

On to `Cc1cccc(C)c1Nc1c(C(C)C)nc2ccccn12` [Compound 10057], for which the inhibition at 10 µM on adenylylated MtbGS (pre-incubation protocol, average over the 4 screens, read-out: Adenylated Mtb GS (% inhibition) AVG) came out at 99%; at adenylylated MtbGS (pre-incubation protocol, screen 1, read-out: Adenylated Mtb GS (% inhibition) Screen 1), 100%; at adenylylated MtbGS (pre-incubation protocol, screen 2, read-out: Adenylated Mtb GS (% inhibition) Screen 2), 99%; on adenylylated MtbGS (pre-incubation protocol, screen 3, read-out: Adenylated Mtb GS (% inhibition) Screen 3) it was 98%; on adenylylated MtbGS (pre-incubation protocol, screen 4, read-out: Adenylated Mtb GS (% inhibition) Screen 4), 100%; on deadenylylated MtbGS (average over the 4 screens, read-out: Deadenylated Mtb GS (% inhibition) AVG), 59%. Also, the inhibition at 10 µM on deadenylylated MtbGS (screen 1, read-out: Deadenylated Mtb GS (% inhibition) Screen 1) worked out at 67%; at deadenylylated MtbGS (screen 2, read-out: Deadenylated Mtb GS (% inhibition) Screen 2) it was 62%; on deadenylylated MtbGS (screen 3, read-out: Deadenylated Mtb GS (% inhibition) Screen 3) it was 47%; on deadenylylated MtbGS (screen 4, read-out: Deadenylated Mtb GS (% inhibition) Screen 4) it was 58%. Also, the IC50 was 3.51 µM and 15.6 µM at adenylylated MtbGS (dose-response assay, pre-incubation protocol, single assay values, read-out: IC50, adenylylated MtbGS); < 100 µM at adenylylated MtbGS (dose-response assay, enzyme form not given, read-out: IC50 concentration, MtbGS). The “Selectivity for adenylylated vs deadenylylated MtbGS” value at adenylylated MtbGS (from % inhibition at 10μM of both enzyme forms) is reported as “GS-adenylylated specific”. Also, the “Growth inhibition of M.tb H37Rv (percentage of growth index)” value in assay [1] came to 53%. Also, in assay [2] (Fig 7), the “Activity against intracellular M.tb (Beijing220), in words” value is “moderate activity”. Besides, the “Percentage killing of intracellular M.tb (Beijing220), Fig 7” value in assay [2] (MOI 2:1, drug on day 4 post infection, harvest day 2 post drug, first experiment (8 selective compounds)) came out at 65%.
Consider `CS(=N)(=O)CC[C@H](N)C(=O)O` (stereo partly drawn) [MSO, L-methionine-S,R-sulphoximine, reference compound], for which, at adenylylated MtbGS, the “Adenylated Mtb GS (% inhibition) AVG” value was found to be 99%, the “Adenylated Mtb GS (% inhibition) Screen 1” value is reported as 100%, the “Adenylated Mtb GS (% inhibition) Screen 2” value amounted to 100% and the “Adenylated Mtb GS (% inhibition) Screen 3” value stood at 96%. For the same molecule, on adenylylated MtbGS, the “Adenylated Mtb GS (% inhibition) Screen 4” value is 100%. For the same molecule, the IC50 at adenylylated MtbGS (read-out: IC50, adenylylated MtbGS) amounted to 0.16 µM. At deadenylylated MtbGS, the “Deadenylated Mtb GS (% inhibition) AVG” value is recorded as 100%, the “Deadenylated Mtb GS (% inhibition) Screen 1” value came to 100%, the “Deadenylated Mtb GS (% inhibition) Screen 2” value was found to be 100% and the “Deadenylated Mtb GS (% inhibition) Screen 3” value is given as 99%. Further, at deadenylylated MtbGS, the “Deadenylated Mtb GS (% inhibition) Screen 4” value was determined as 100% and the IC50 turned out to be 1.6 µM. In addition, in the assay on M. tuberculosis, the “Growth of M. tuberculosis” value is reported as “inhibits growth”.
In the case of `CC[C@@H](CO)NCCN[C@@H](CC)CO` [ethambutol], the “Breakpoint concentration to which the H37Rv strain was sensitive” value (shortened to “Breakpoint concentration”) in assay [3] was 9.4 µg/mL.
Turning to `NNC(=O)c1ccncc1` [isoniazid], the “Breakpoint concentration” value in assay [3] was 0.25 µg/mL. In addition, the “Susceptibility of the Beijing220 clinical isolate” value in assay [4] is “resistant”.
Turning to `CO[C@H]1/C=C/O[C@@]2(C)Oc3c(C)c(O)c4c(O)c(c(/C=N/N5CCN(C)CC5)c(O)c4c3C2=O)NC(=O)/C(C)=C\C=C\[C@H](C)[C@H](O)[C@@H](C)[C@@H](O)[C@@H](C)[C@H](OC(C)=O)[C@@H]1C` [rifampicin], in assay [3], the “Breakpoint concentration” value is 2.0 µg/mL. In addition, in assay [4], the “Susceptibility of the Beijing220 clinical isolate” value is “resistant”.

In general, inhibition refers to how much of the control response was suppressed.
